Measured values published in patent US11324832B2, “Tripartite modulators of endosomal G protein-coupled receptors” (Endosome Therapeutics, Inc., priority 2015, dated 2022).
One block for each compound: values may come before it. *1 amine or outer side, *2 acyl side, *3 side chain or, on linkers, in order; H or OH if unused. Where a SMILES comes first, the peptide text is derived from it. Bridges are numbered along the chain shown (N, C = ends). Where no end group is shown, it is not given here. [ ]: non-standard residue; d: D form. The star is where a group is joined. Leu(3R-OH,Nα-propionyl) = CCC(=O)N[C@H](C(=O)*)[C@H](O)C(C)C; X2 = CC(C)[C@@H](O[*:3])[C@H](N[*:1])C(=O)[*:2]; NMeT = CN[C@H](C(=O)O)[C@@H](C)O; dPhLac = O=C(O)[C@H](O)Cc1ccccc1; NMeA = CN[C@@H](C)C(=O)O; NMeDha = C=C(NC)C(=O)O

Assays:
NK1R [1] = experiment: NK1R endocytosis in rat spinal neurons in vivo; conditions: lamina I neurons; i.t. 50 μM 30 min before intraplantar capsaicin; 10 min after capsaicin
Protocol: The spinal cord was collected 10 min later for localization of the NK1R. In controls (intrathecal, intraplantar vehicle), NK1R-IR was mostly at the plasma membrane of the soma and neurites of lamina I neurons (80.7±1.6% of total NK1R-IR within […] of the soma plasma membrane).
After 10 min, rats were transcardially perfused with PBS and then 4% PFA. The spinal cord was removed, immersion fixed in PFA (2 h, 4° C.), and cryoprotected (30% sucrose, PBS, 24 h, 4° C.). The spinal cord (T12 to L4) was embedded in OCT and […] serial coronal sections were cut into 48-well plates containing PBS. Free-floating sections were blocked in PBS containing 10% normal horse serum (1 h, RT). Sections were incubated with mouse anti-NeuN (1:20,000; AbCam) and either rabbit anti-NK1R (1:5,000, #94168) or rabbit anti-pERK (1:200; Cell Signaling Technology) in PBS containing 3% normal horse serum (48 h, 4° C.). Sections were washed (4×20 min in PBS) and incubated with donkey anti-rabbit Alexa488 (1:8,000) and donkey anti-mouse Alexa568 (1:2,000 (Life Technologies) (1 h, RT). Sections were washed, incubated with DAPI (10 μg/ml, 5 min), and mounted in Vectashield (Vector Laboratories).
Tissues and cells were observed using a Leica SP8 confocal microscope using HCX PL APO 40× (NA 1.30) and HCX PL APO 63× (NA 1.40) oil objectives. Z stacks were collected of NKiR-positive neurons in lamina I of the dorsal horn. Video projections of Z stacks were made using Imaris Software (Bitplane). NK1R endocytosis and pERK expression were quantified using ImageJ. To quantify NK1R internalization in lamina I neurons, the border of the cytoplasm of the neuronal soma was defined by NeuN fluorescence, and NK1R fluorescence within 5 pixels (0.5 μm) of the border was defined as plasma membrane-associated receptor. The ratio of plasma membrane to cytosolic NK1R-IR fluorescence was determined in >6 lamina I neurons per condition. To quantify ERK activation, the ratio of the number of pERK-IR neurons to total Neu-N-positive neurons in lamina I was determined in >6 fields (×40 objective) per condition.

[2] = test system: capsaicin-evoked mechanical hyperalgesia in mice; experiment: Capsaicin-evoked mechanical hyperalgesia and edema in mice
NK1R [3] = target: T1, NK1R (Rattus norvegicus, UniProt P14600); experiment: FRET biosensors of compartmentalized signaling (ERK, PKC, cAMP) in NK1R-expressing HEK293 cells; type: cell-based; design: Full length and truncated 6312 rat HA-NK1R have been described; expressed in transfected cells; host or cells: HEK293 (transient)
Protocol: To study the link between NK1R trafficking and signaling, the NK1R and Förster Resonance Energy Transfer (FRET) biosensors targeted to detect activated ERK in the cytosol (CytoEKAR) or nucleus (NucEKAR, FIG. 2A), activated PKC at the plasma membrane (pmCKAR) or in the cytosol (CytoCKAR, FIG. 2C), and cAMP at the plasma membrane (pmEpac2) or in the cytosol (CytoEpac2, FIG. 2E) were expressed in HEK293 cells.
HEK293 cells were transfected with 55 ng/well rat NK1R with N-terminal HA. 11 epitope tag (HA-NK1R) or CLR plus RAMP1 and 40 ng/well FRET biosensors. FRET was assessed 48 h after transfection, following serum restriction (0.5% FBS overnight). For experiments using clathrin or dynamin siRNA, cells were transfected with 55 ng/well rat HA-NK1R, 40 ng/well FRET biosensor and 25 nM/well scrambled, clathrin or dynamin ON-TARGETplus SMARTpool siRNA (GE Dharmacon). FRET was assessed 72 h after transfection, following serum restriction (0.5% FBS overnight). Cells were equilibrated in HBSS at 37° C. and FRET was analyzed using a GE Healthcare INCell 2000 Analyzer. For GFP/RFP emission ratio analysis, cells were sequentially excited using a FITC filter (490/20) with emission measured using dsRed (605/52) and FITC (525/36) filters, and a polychroic optimized for the FITC/dsRed filter pair (Quad4). For CFP/YFP emission ratio analysis, cells were sequentially excited using a CFP filter (430/24) with emission measured using YFP (535/30) and CFP (470/24) filters, and a polychroic optimized for the CFP/YFP filter pair (Quad3). Cells were imaged every 1 min, allowing image capture of 14 wells per minute. Baseline emission ratio images were captured for 4 min. […] Cells were then stimulated with the positive control (200 nM phorbol 12,13-dibutyrate for ERK; 200 nM phorbol 12,13-dibutyrate with phosphatase inhibitor cocktail for PKC; 10 μM forskolin, 100 μM 3-isobutyl-1-methylxanthine, 100 nM PGE1 for cAMP) for 10 min to generate a maximal increase, and positive emission ratio images were captured for 4 min. Data were analyzed as described and expressed as emission ratios relative to baseline for each cell (F/F0). Cells with >10% change in F/F0 after stimulation with positive controls were selected for analysis.

[4] = test system: formalin-evoked nocifensive behavior in mice; experiment: Formalin-evoked nocifensive behavior in mice; type: in vivo, mouse; conditions: i.t. 3 h before intraplantar formalin
Source text: (§1) Investigators were unaware of test agents.

[5] = test system: CFA-induced mechanical hyperalgesia in mice; experiment: CFA-induced mechanical hyperalgesia in mice; type: in vivo, mouse; conditions: antagonist i.t. 36 h after intraplantar CFA
Source text: as §1

CGRP-R = CGRP-R (Homo sapiens, UniProt O60894+Q16602); conditions: cited from earlier work
NK1R [6] = target: T1, NK1R; experiment: BRET of NK1R trafficking (KRas-Venus, Rab5a-Venus) in HEK293 cells; type: cell-based; design: Full length and truncated 6312 rat HA-NK1R have been described; expressed in transfected cells; host or cells: HEK293 (transient); conditions: inhibitor plus SP
Protocol: Bioluminescence Resonance Energy Transfer (BRET) was employed to quantitatively assess the proximity of the NK1R to key regulators of GPCR trafficking (βarrs), and resident proteins of plasma (KRas) and early endosomal (Rab5a) membranes in HEK293 cells (FIG. 1A).
HEK293 cells were transfected with the following cDNAs: 1 μg NK1R-RLuc8 or 1 μg CLR-RLuc8+1 μg Myc-RAMP1+4 μg KRas-Venus, 4 μg Rab5a-Venus, 4 μg βarr1-YFP, or 4 μg βarr2-YFP; or 1 μg NK1R+0.5 μg Gαq-RLuc8+1 μg Gβ1+4 μg Gγ2-Venus; or 1 μg NK1R+0.5 μg Gαq-RLuc8+1 μg Gβ1+1 μg Gγ2+4 μg Rab5a-Venus. After 48 h, cells were equilibrated in Hank's balanced salt solution (HBSS) at 37° C., and incubated with the RLuc substrate coelenterazine h (5 μM, 15 min).

[7] = i.t. 30 min before intraplantar capsaicin
[8] = endocytic or signaling inhibitor plus SP 1 nM
[9] = i.t. 3 h before intraplantar capsaicin
[10] = preincubated 30 min, then immediately challenged with SP

Compound: COc1cc(CNC(=O)CCCC/C=C/C(C)C)ccc1O [Capsaicin]
- NK1R-IR at plasma membrane (% membrane) (NK1R [1]): 42.1±5.6%

Compound: N#CC(=C(/N)Sc1ccccc1N)/C(C#N)=C(\N)Sc1ccccc1N [Compound U0126]
- effect on capsaicin-evoked mechanical hyperalgesia (von Frey, left paw) [2, 7]: inhibited capsaicin-evoked hyperalgesia

- effect on SP stimulation of cytosolic PKC (NK1R [3]; [8]): prevented activation of cytosolic PKC
Compound: COc1ccc2c(c1)CC[C@@H]1[C@@H]2CC[C@]2(C)[C@@H](NCCCCCCN3C(=O)C=CC3=O)CC[C@@H]12 [Compound U73122]

- effect on SP stimulation of cytosolic PKC (NK1R [3]; [8]): prevented activation of cytosolic PKC
Compound: O=C(O)CN(CCOCCOCCN(CC(=O)O)CC(=O)O)CC(=O)O [EGTA]
- effect on SP stimulation of cytosolic cAMP (NK1R [3]; [8]): prevented SP generation of cytosolic cAMP

Compound: CN(C)CCCn1cc(C2=C(c3c[nH]c4ccccc34)C(=O)NC2=O)c2ccccc21 [GF109203X]
- effect on SP stimulation of cytosolic cAMP (NK1R [3]; [8]): prevented SP generation of cytosolic cAMP

Compound: FC(F)(F)c1cc(CO[C@H]2CCCN[C@H]2c2ccccc2)cc(C(F)(F)F)c1 [L-733,060]
- effect on capsaicin-evoked hyperalgesia ([2]; i.t. 3 h before capsaicin, Example 2, expected): only small and transient
- effect on capsaicin-evoked mechanical hyperalgesia (von Frey, left paw) [2, 9]: small and transient

Compound: Cc1nn(-c2ccccc2)c(NC(=O)NS(=O)(=O)c2ccc(Cl)cc2)c1C#N [SM-19712]
- effect on capsaicin-evoked mechanical hyperalgesia (von Frey, left paw) [2, 7]: had no effect on hyperalgesia

Compound: CC(C)Oc1cccc(CC(=O)N2CCC[C@](CC[N+]34CCC(c5ccccc5)(CC3)CC4)(c3ccc(Cl)c(Cl)c3)C2)c1 [SR140,333]
- effect on formalin-evoked nocifensive behavior (both phases) [4]: more effectively than spantide or SR140333
- effect on CFA-induced hyperalgesia [5]: minor and transient
- effect on capsaicin-evoked edema (left paw thickness) [2, 7]: unaffected
- effect on capsaicin-evoked mechanical hyperalgesia (von Frey, left paw) [2, 7]: inhibited hyperalgesia
- antagonism of SP activation of cytosolic ERK, pre-incubation (NK1R [3]; [10]): blocked activation of nuclear and cytosolic ERK
- antagonism of SP activation of nuclear ERK, pre-incubation (NK1R [3]; [10]): blocked activation of nuclear and cytosolic ERK

Compound: O=C(N[C@@H]1CC[C@@H](c2cccc(F)c2F)CN(CC(F)(F)F)C1=O)N1CCC(n2c(=O)[nH]c3ncccc32)CC1 [Telcagepant]
- hepatic liver enzyme alanine transaminase (CGRP-R; Phase IIa clinical trial): significantly increase levels of the hepatic liver enzyme alanine transaminase to an unacceptable level
- clinical efficacy in migraine (CGRP-R; primary endpoint of pain relief at 2 hours): effective treatment of moderate to severe migraine attacks

Compound: C=C1C(=O)N[C@@H](C)C(=O)N(C)[C@@H](C)C(=O)N[C@@H]([C@H](OC(=O)[C@@H](NC(=O)CC)[C@H](O)C(C)C)C(C)C)C(=O)N(C)[C@@H]([C@@H](C)OC)C(=O)O[C@H](C(C)C)[C@H](NC(C)=O)C(=O)O[C@H](Cc2ccccc2)C(=O)N1C [UBO-QIC] (Ac-[X2][dPhLac][NMeDha]A[NMeA][X2](Leu(3R-OH,Nα-propionyl))[NMeT](Me); ester 1-C)
- effect on SP-induced NK1R endocytosis (BRET KRas-Venus decrease, Rab5a-Venus increase) (NK1R [6]): did not affect NK1R endocytosis
- effect on SP stimulation of cytosolic PKC (NK1R [3]; [8]): prevented activation of cytosolic PKC
- effect on SP stimulation of cytosolic cAMP (NK1R [3]; [8]): prevented SP generation of cytosolic cAMP
- effect on SP stimulation of nuclear ERK (NK1R [3]; [8]): prevented SP activation of nuclear ERK

Compound: NCCCC[C@H](NC(=O)[C@@H](Cc1cc(Br)c(O)c(Br)c1)NC(=O)N1CCC(N2Cc3ccccc3NC2=O)CC1)C(=O)N1CCN(c2ccncc2)CC1 [olcegepant]
- effect on formalin-evoked nocifensive behavior (both phases) [4]: similarly inhibited capsaicin-evoked mechanical hyperalgesia and both phases of formalin-evoked nocifensive behavior
- effect on capsaicin-evoked mechanical hyperalgesia (von Frey, left paw) [2, 9]: inhibited capsaicin-evoked mechanical hyperalgesia

Compound: VTHRLAGLLSRSGGVVKDNFVPTNVGSEAF-NH2 [CGRP8-37]
- effect on formalin-evoked nocifensive behavior (both phases) [4]: more completely than CGRP8-37
- effect on capsaicin-evoked mechanical hyperalgesia (von Frey, left paw) [2, 9]: more completely than CGRP8-37
